ChEMBL document CHEMBL1938230, “6-Position optimization of tricyclic 4-quinolone-based inhibitors of glycogen synthase kinase-3β: discovery of nitrile derivatives with picomolar potency” (Bioorg Med Chem Lett, 2012)

What was measured:
[1] = target: T1, Interleukin-1 receptor-associated kinase 4 (Homo sapiens) (UniProt Q9NWZ3); assay: Inhibition of human IRAK4 in HL-60 cells lysate assessed as reduction of labeling of acyl-phosphate ATP probe at 100 nM; format: cell-free
T1 sequence (whole entry): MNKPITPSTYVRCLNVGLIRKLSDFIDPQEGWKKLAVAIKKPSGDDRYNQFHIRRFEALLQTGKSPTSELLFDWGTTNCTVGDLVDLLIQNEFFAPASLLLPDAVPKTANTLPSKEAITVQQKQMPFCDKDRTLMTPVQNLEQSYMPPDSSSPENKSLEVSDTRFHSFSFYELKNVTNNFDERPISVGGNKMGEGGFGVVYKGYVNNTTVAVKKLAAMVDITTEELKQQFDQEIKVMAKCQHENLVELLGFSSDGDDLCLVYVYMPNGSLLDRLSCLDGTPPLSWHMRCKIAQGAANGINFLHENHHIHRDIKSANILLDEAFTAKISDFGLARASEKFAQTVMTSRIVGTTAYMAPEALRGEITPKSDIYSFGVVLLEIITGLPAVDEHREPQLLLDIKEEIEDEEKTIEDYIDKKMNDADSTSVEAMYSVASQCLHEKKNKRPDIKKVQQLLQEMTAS

[2] = target: T2, Serine/threonine-protein kinase TBK1 (Homo sapiens) (UniProt Q9UHD2); assay: Inhibition of human TBK1 in HL-60 cells lysate assessed as reduction of labeling of acyl-phosphate ATP probe at 100 nM; format: cell-free
T2 sequence (whole entry): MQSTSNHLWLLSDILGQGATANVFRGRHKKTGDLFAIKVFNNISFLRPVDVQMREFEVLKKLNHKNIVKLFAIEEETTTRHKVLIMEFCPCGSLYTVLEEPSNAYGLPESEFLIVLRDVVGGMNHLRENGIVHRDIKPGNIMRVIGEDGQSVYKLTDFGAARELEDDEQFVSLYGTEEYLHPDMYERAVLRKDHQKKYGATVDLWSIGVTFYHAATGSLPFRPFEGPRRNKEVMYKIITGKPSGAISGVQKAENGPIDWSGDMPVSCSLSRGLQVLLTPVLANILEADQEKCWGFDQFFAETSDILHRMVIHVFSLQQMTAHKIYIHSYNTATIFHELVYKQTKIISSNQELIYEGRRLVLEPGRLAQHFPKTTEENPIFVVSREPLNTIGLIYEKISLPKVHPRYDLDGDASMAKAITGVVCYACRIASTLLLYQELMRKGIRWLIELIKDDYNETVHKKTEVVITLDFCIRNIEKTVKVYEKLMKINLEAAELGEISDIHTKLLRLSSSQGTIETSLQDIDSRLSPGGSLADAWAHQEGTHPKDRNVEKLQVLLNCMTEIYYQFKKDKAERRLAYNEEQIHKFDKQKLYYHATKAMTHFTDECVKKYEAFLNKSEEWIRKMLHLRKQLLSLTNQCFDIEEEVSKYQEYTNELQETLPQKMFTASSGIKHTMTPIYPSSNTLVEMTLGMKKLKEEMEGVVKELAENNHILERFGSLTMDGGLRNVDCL

[3] = target: Serine/threonine-protein kinase 16 (Homo sapiens) (UniProt O75716); assay: Inhibition of human MPSK1 in HL-60 cells lysate assessed as reduction of labeling of acyl-phosphate ATP probe at 100 nM; format: cell-free
HL-60 = assay: Inhibition of human CDK11/CDK8 in HL-60 cells lysate assessed as reduction of labeling of acyl-phosphate ATP probe at 100 nM
[4] = target: T3, Serine/threonine-protein kinase 4 (Homo sapiens) (UniProt Q13043); assay: Inhibition of human MST1 in HL-60 cells lysate assessed as reduction of labeling of acyl-phosphate ATP probe at 100 nM; format: cell-free
T3 sequence (whole entry): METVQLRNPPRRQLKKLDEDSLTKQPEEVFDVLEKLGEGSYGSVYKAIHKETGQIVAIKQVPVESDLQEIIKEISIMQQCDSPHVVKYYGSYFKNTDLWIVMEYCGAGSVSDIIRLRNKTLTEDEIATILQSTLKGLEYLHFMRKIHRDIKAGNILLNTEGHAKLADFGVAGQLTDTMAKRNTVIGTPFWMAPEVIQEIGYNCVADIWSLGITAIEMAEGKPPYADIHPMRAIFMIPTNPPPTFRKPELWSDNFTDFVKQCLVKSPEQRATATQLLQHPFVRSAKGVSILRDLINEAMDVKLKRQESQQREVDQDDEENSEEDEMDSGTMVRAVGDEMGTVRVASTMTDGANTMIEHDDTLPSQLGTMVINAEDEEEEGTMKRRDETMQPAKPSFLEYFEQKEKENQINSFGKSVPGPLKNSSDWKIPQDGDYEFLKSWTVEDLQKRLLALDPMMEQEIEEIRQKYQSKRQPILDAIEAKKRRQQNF

[5] = target: T4, Serine/threonine-protein kinase Nek9 (Homo sapiens) (UniProt Q8TD19); assay: Inhibition of human NEK9 in HL-60 cells lysate assessed as reduction of labeling of acyl-phosphate ATP probe at 100 nM; format: cell-free
T4 sequence (whole entry): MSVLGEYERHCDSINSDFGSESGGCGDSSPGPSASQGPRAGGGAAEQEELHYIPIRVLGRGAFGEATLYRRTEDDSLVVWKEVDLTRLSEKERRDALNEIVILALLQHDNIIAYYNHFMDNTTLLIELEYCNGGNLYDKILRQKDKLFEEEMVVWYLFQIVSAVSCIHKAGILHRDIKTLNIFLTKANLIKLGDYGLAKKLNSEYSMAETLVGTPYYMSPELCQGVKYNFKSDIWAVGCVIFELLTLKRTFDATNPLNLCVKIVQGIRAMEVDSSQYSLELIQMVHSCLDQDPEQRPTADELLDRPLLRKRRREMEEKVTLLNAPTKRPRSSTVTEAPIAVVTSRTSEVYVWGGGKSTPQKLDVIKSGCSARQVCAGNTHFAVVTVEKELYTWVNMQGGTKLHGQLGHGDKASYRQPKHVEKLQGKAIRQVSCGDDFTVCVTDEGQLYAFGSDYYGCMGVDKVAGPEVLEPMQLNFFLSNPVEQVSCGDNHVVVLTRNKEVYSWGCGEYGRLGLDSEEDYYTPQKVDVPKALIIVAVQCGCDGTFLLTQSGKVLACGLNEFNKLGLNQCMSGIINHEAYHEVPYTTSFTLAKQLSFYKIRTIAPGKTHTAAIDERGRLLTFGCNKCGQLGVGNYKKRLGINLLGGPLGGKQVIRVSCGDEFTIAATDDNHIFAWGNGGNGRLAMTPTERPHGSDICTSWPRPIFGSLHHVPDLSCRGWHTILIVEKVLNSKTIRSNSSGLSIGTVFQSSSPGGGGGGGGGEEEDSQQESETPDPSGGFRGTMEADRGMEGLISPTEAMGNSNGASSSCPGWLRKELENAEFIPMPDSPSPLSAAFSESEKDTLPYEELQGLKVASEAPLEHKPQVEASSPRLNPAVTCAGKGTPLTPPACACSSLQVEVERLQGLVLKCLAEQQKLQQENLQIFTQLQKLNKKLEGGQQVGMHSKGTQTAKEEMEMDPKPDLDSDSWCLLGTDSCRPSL

Serine/threonine-protein kinase 16 (Homo sapiens), sequence (O75716 whole entry): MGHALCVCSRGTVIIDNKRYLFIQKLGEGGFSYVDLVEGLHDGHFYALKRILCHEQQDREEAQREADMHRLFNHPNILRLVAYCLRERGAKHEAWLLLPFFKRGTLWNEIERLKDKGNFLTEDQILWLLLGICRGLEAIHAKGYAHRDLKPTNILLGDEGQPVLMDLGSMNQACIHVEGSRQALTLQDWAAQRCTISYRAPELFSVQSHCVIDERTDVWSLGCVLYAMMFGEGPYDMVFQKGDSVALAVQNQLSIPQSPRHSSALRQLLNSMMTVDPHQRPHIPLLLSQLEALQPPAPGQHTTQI

C[C@H]1COc2c(NCCCc3ccccn3)c(F)c(N)c3c(=O)c(C#N)cn1c23
< 35%: inhibition [1] | inhibition [2] | inhibition [3] | inhibition at 0.1 µM (HL-60) | inhibition [4] | inhibition [5]

C[C@H]1COc2c(NCCCc3ccccn3)c(F)c(N)c3c(=O)c(C(=O)O)cn1c23
< 35%: inhibition [1] | inhibition [2] | inhibition [3] | inhibition at 0.1 µM (HL-60) | inhibition [4] | inhibition [5]

C[C@H]1COc2c(NCCCn3cccn3)c(F)c(N)c3c(=O)c(C(=O)O)cn1c23
< 35%: inhibition [1] | inhibition [2] | inhibition [3] | inhibition at 0.1 µM (HL-60) | inhibition [4] | inhibition [5]

C[C@H]1COc2c(NCCCn3cccn3)c(F)c(N)c3c(=O)c(C#N)cn1c23
< 35%: inhibition [1] | inhibition [2] | inhibition [3] | inhibition at 0.1 µM (HL-60) | inhibition [4] | inhibition [5]
